From publication PMC11961260 (Royal Society Open Science, 2025)
Peptide text beside a SMILES is read from it.

Columns and labels:
SARS-CoV-2 main protease = details: read-out: IC50 value of the positive control; cited from earlier work
[1] = target: T1, SARS-CoV-2 main protease (M^pro) (Severe acute respiratory syndrome coronavirus 2, UniProt P0DTD1); assay: SARS-CoV-2 main protease inhibitor screening assay (Cayman Chemicals, Catalogue Number 701960); format: biochemical; details: for response in SARS-CoV-2 M^pro inhibition screening (in words: active/inactive) / % inhibition of SARS-CoV-2 M^pro: dendron 20 μM; for % inhibition of SARS-CoV-2 M^pro: 30 min pre-incubation, 2 h with substrate, room temperature, three wells
T1 construct: purchased Cayman Chemicals 701960

[2] = no reference given; cited from earlier work
[3] = fluorescence ex 340 nm/em 490 nm

Compound	response in SARS-CoV-2 M^pro inhibition screening (in words: active/inactive) [1]	% inhibition of SARS-CoV-2 M^pro [1, 3] [%]	further results
CC(C)C[C@H](NC(=O)OCc1ccccc1)C(=O)N[C@@H](CC1CCNC1=O)C(O)S(=O)(=O)O (stereo partly shown) [GC376]	–	–	IC50 (SARS-CoV-2 main protease): 0.15 ± 0.03 µM
O=C(O)CC[C@H](NC(=O)[C@H](Cc1c[nH]c2ccccc12)NC(=O)CC[C@H](NC(=O)CNC(=O)CCN1c2ccccc2Sc2ccccc21)C(=O)N[C@@H](Cc1c[nH]c2ccccc12)C(=O)N[C@@H](CCC(=O)O)C(=O)O)C(=O)O [compound 114, Ptz-GE(WE-COOH)WE-COOH] (HELM PEPTIDE1{[O=C(CCN1c2ccccc2Sc2ccccc21)[*:2]].G.E.W.E}|PEPTIDE2{W.E}$PEPTIDE1,PEPTIDE2,3:R3-1:R1$$$V2.0)	active	33	IC50 ([1]; figure 3B, fluorescence ex 340 nm/em 490 nm): 65 µM
N[C@@H](CCC(=O)O)C(=O)O [glutamic acid]	–	–	pKa1(COOH) [2]: 2.19; pKa2(side chain COOH) [2]: 4.25
Boc-E(WE-COOH)WE-COOH [C91]	non-responsiveness	< 25	–
Ptz-GE(FE-COOH)FE-COOH [compound 112]	active	25	–
Ptz-GE(HE-COOH)HE-COOH [169A]	inactive	< 25	–
Ptz-GE(YE-COOH)YE-COOH [compound 113]	inactive	< 25	–
Ptz-GE(wE-COOH)wE-COOH [169C]	active	31	–
